Earlier results as cited in US20070027107A1, “Compositions and methods for treating estrogen-dependent diseases and conditions” (priority 2005, published 2007).

Details: free carboxylic acids (without counterion) of alginate residues

Row | pKa | SMILES
1 | 3.38 | O=C[C@@H](O)[C@@H](O)[C@H](O)[C@H](O)C(=O)O [M, D-mannuronic acid]
2 | 3.65 | O=C[C@@H](O)[C@@H](O)[C@H](O)[C@@H](O)C(=O)O [G, L-guluronic acid]
